Reference: ChEMBL document CHEMBL1201862, “PubChem BioAssay data set” (2004)
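Growth conditions: 96-well plates. Treatment: test compound, 48 hours, 5 concentrations. Analysis: linear interpolation between bracketing concentrations; unreached endpoints set to highest concentration. At the GI50, growth is halved.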 The source made the active and inactive calls. No stated cut-off is given here; in the data, active = GI50 up to about 1.1 µM and inactive = higher.

Columns and labels:
Assay in all cases: growth of human tumour cells (NCI), 48 h
M14 = test system: M14
RPMI-8226 = test system: RPMI-8226
LOX IMVI = test system: LOX IMVI
DMS-114 = test system: DMS-114
UACC-62 = test system: UACC-62
SW-620 = test system: SW-620
SNB-75 = test system: SNB-75
KM-20L2 = test system: KM-20L2
A549 = test system: A549
UO-31 = test system: UO-31
786-0 = test system: 786-0
HOP-92 = test system: HOP-92
MOLT-4 = test system: MOLT-4
OVCAR-4 = test system: OVCAR-4
HCT-15 = test system: HCT-15
SK-MEL-28 = test system: SK-MEL-28
COLO 205 = test system: COLO 205
HOP-62 = test system: HOP-62
EKVX = test system: EKVX
NCI-H23 = test system: NCI-H23
K562 = test system: K562
OVCAR-3 = test system: OVCAR-3
DLD-1 = test system: DLD-1
ACHN = test system: ACHN
SF-268 = test system: SF-268
M19-MEL = test system: M19-MEL
LXFL 529 = test system: LXFL 529
HCC 2998 = test system: HCC 2998
SN12C = test system: SN12C
SF-295 = test system: SF-295
HL-60 = test system: HL-60
XF498 = test system: XF498
DMS-273 = test system: DMS-273
SNB-19 = test system: SNB-19
SNB-78 = test system: SNB-78
HOP-18 = test system: HOP-18
OVCAR-8 = test system: OVCAR-8
NCI-H460 = test system: NCI-H460
CAKI-1 = test system: CAKI-1
SK-OV-3 = test system: SK-OV-3
U-251 = test system: U-251
HT-29 = test system: HT-29
RXF 393 = test system: RXF 393
IGROV-1 = test system: IGROV-1
Malme-3M = test system: Malme-3M
TK-10 = test system: TK-10
NCI-H226 = test system: NCI-H226
A498 = test system: A498
NCI-H522 = test system: NCI-H522
KM12 = test system: KM12
HCT-116 = test system: HCT-116
UACC-257 = test system: UACC-257
CCRF-CEM = test system: CCRF-CEM
SK-MEL-2 = test system: SK-MEL-2
OVCAR-5 = test system: OVCAR-5
SF-539 = test system: SF-539
SK-MEL-5 = test system: SK-MEL-5
SR = test system: SR

In the case of `CCOC(=O)C1(Cc2ccc3ccccc3c2)CCCCCN1` (stereo not given), the GI50 (M14) is reported as 20 µM (inactive), the GI50 (RPMI-8226) is reported as 5.6 µM (inactive) and the GI50 (LOX IMVI) is reported as 20.1 µM (inactive). The GI50 (DMS-114) was 26.5 µM (inactive), the GI50 (UACC-62) was 46.3 µM (inactive) and the GI50 (SW-620) was 24.5 µM (inactive). For the same compound, the GI50 (SNB-75) was 2.78 µM (inactive), the GI50 (KM-20L2) was 22.5 µM (inactive) and the GI50 (A549) was 52.4 µM (inactive). The GI50 (UO-31) was 20.3 µM (inactive), the GI50 (786-0) was 17.3 µM (inactive) and the GI50 (HOP-92) was 13.9 µM (inactive). For the same compound, the GI50 (MOLT-4) was 4.91 µM (inactive), the GI50 (OVCAR-4) was 31.4 µM (inactive) and the GI50 (HCT-15) was 18.7 µM. The GI50 (SK-MEL-28) was 23.3 µM (inactive), the GI50 (COLO 205) was 18.7 µM (inactive) and the GI50 (HOP-62) was 64.3 µM (inactive). For the same compound, the GI50 (EKVX) was 69.5 µM (inactive), the GI50 (NCI-H23) was 30 µM (inactive) and the GI50 (K562) was 22.8 µM (inactive). The GI50 (OVCAR-3) was 45.3 µM (inactive), the GI50 (DLD-1) was 25.9 µM (inactive) and the GI50 (ACHN) was 58.2 µM (inactive). For the same compound, the GI50 (SF-268) was 58.5 µM (inactive), the GI50 (M19-MEL) was 31.1 µM (inactive) and the GI50 (LXFL 529) was 34.1 µM (inactive). For the same compound, the GI50 (HCC 2998) was 19.1 µM (inactive), the GI50 (SN12C) was 29.4 µM (inactive) and the GI50 (SF-295) was 19 µM (inactive). For the same compound, the GI50 (HL-60) was 18.8 µM (inactive), the GI50 (XF498) was 16.2 µM (inactive) and the GI50 (DMS-273) was 18.9 µM (inactive). For the same compound, the GI50 (SNB-19) was 43.7 µM (inactive), the GI50 (SNB-78) was 64.3 µM (inactive) and the GI50 (HOP-18) was 25.5 µM (inactive). For the same compound, the GI50 (OVCAR-8) was 39.6 µM (inactive), the GI50 (NCI-H460) was 18.4 µM (inactive) and the GI50 (CAKI-1) was 9.23 µM (inactive). The GI50 (SK-OV-3) was 32.7 µM (inactive), the GI50 (U-251) was 47 µM (inactive) and the GI50 (HT-29) was 12.6 µM (inactive). The GI50 (RXF 393) was 20.4 µM (inactive), the GI50 (IGROV-1) was > 100 µM (inactive) and the GI50 (Malme-3M) was 16.5 µM (inactive). The GI50 (TK-10) was 54.1 µM (inactive).
For `O=C(N/N=C1\C(=O)N(c2nccs2)C(=O)C(=O)C1c1nc2ccccc2s1)c1ccccc1O` (stereo not given), the GI50 (M14) was > 100 µM (inactive), the GI50 (RPMI-8226) was 61.4 µM (inactive) and the GI50 (LOX IMVI) was 44.3 µM (inactive). For the same compound, the GI50 (DMS-114) was 28.3 µM (inactive), the GI50 (UACC-62) was 31.3 µM (inactive) and the GI50 (SW-620) was 47.9 µM (inactive). For the same compound, the GI50 (SNB-75) was 3.3 µM (inactive), the GI50 (NCI-H226) was 71.1 µM (inactive) and the GI50 (KM-20L2) was > 100 µM (inactive). The GI50 (A549) was 52.1 µM (inactive), the GI50 (UO-31) was 8.22 µM (inactive) and the GI50 (786-0) was > 100 µM (inactive). For the same compound, the GI50 (HOP-92) was > 100 µM (inactive), the GI50 (OVCAR-4) was 39.8 µM (inactive) and the GI50 (HCT-15) was 41.8 µM. For the same compound, the GI50 (SK-MEL-28) was 88.1 µM (inactive), the GI50 (COLO 205) was > 100 µM (inactive) and the GI50 (A498) was 65.3 µM (inactive). The GI50 (HOP-62) was 23.9 µM (inactive), the GI50 (EKVX) was > 100 µM (inactive) and the GI50 (NCI-H522) was 30.2 µM (inactive). For the same compound, the GI50 (KM12) was 54.5 µM (inactive), the GI50 (HCT-116) was 29.9 µM (inactive) and the GI50 (UACC-257) was 35.7 µM (inactive). For the same compound, the GI50 (NCI-H23) was 29.5 µM (inactive), the GI50 (K562) was 19.7 µM (inactive) and the GI50 (CCRF-CEM) was 39.5 µM (inactive). For the same compound, the GI50 (OVCAR-3) was 35.9 µM (inactive), the GI50 (DLD-1) was 71.1 µM (inactive) and the GI50 (ACHN) was 28.6 µM (inactive). For the same compound, the GI50 (SF-268) was 12.1 µM (inactive), the GI50 (M19-MEL) was 87.1 µM (inactive) and the GI50 (LXFL 529) was 32 µM (inactive). The GI50 (HCC 2998) was 15 µM (inactive), the GI50 (SN12C) was 39.1 µM (inactive) and the GI50 (SF-295) was 47.5 µM (inactive). For the same compound, the GI50 (HL-60) was 36.7 µM (inactive), the GI50 (XF498) was 27.1 µM (inactive) and the GI50 (SK-MEL-2) was > 100 µM (inactive). The GI50 (OVCAR-5) was > 100 µM (inactive), the GI50 (DMS-273) was 31.8 µM (inactive) and the GI50 (SNB-19) was 60 µM (inactive). The GI50 (SNB-78) was 33.3 µM (inactive), the GI50 (HOP-18) was 10.1 µM (inactive) and the GI50 (OVCAR-8) was 43 µM (inactive). For the same compound, the GI50 (NCI-H460) was 53.3 µM (inactive), the GI50 (CAKI-1) was > 100 µM (inactive) and the GI50 (SK-OV-3) was > 100 µM (inactive). The GI50 (U-251) was 49.8 µM (inactive), the GI50 (HT-29) was > 100 µM (inactive) and the GI50 (RXF 393) was 21.1 µM (inactive). The GI50 (SF-539) was 28.1 µM (inactive), the GI50 (IGROV-1) was 25.9 µM (inactive) and the GI50 (Malme-3M) was > 100 µM (inactive). For the same compound, the GI50 (TK-10) was > 100 µM (inactive) and the GI50 (SK-MEL-5) was 47.5 µM (inactive).
`CC(=O)OC12/C(=N/O)CCCCCC1c1ccccc12` (stereo not given) was tested, and the GI50 (RPMI-8226) was 33.6 µM (inactive), the GI50 (LOX IMVI) was > 100 µM (inactive) and the GI50 (DMS-114) was 41.7 µM (inactive). For the same compound, the GI50 (UACC-62) was 95.5 µM (inactive), the GI50 (SW-620) was > 100 µM (inactive) and the GI50 (SNB-75) was 42.8 µM (inactive). The GI50 (NCI-H226) was > 100 µM (inactive), the GI50 (KM-20L2) was > 100 µM (inactive) and the GI50 (A549) was > 100 µM (inactive). For the same compound, the GI50 (UO-31) was 27.5 µM (inactive), the GI50 (786-0) was > 100 µM (inactive) and the GI50 (MOLT-4) was 25.4 µM (inactive). For the same compound, the GI50 (OVCAR-4) was 60.8 µM (inactive), the GI50 (HCT-15) was over 100 µM and the GI50 (SK-MEL-28) was > 100 µM (inactive). The GI50 (COLO 205) was > 100 µM (inactive), the GI50 (HOP-62) was > 100 µM (inactive) and the GI50 (EKVX) was 68.1 µM (inactive). For the same compound, the GI50 (NCI-H522) was 31.2 µM (inactive), the GI50 (KM12) was > 100 µM (inactive) and the GI50 (HCT-116) was 84.7 µM (inactive). The GI50 (UACC-257) was 74.8 µM (inactive), the GI50 (NCI-H23) was 70.8 µM (inactive) and the GI50 (K562) was 39.2 µM (inactive). For the same compound, the GI50 (CCRF-CEM) was 26.4 µM (inactive), the GI50 (ACHN) was 95.3 µM (inactive) and the GI50 (SF-268) was > 100 µM (inactive). For the same compound, the GI50 (M19-MEL) was > 100 µM (inactive), the GI50 (LXFL 529) was 66.8 µM (inactive) and the GI50 (SR) was 30.4 µM (inactive). The GI50 (SN12C) was > 100 µM (inactive), the GI50 (SF-295) was 96.8 µM (inactive) and the GI50 (HL-60) was 64.3 µM (inactive). The GI50 (XF498) was 62.8 µM (inactive), the GI50 (SK-MEL-2) was > 100 µM (inactive) and the GI50 (DMS-273) was > 100 µM (inactive). The GI50 (SNB-19) was > 100 µM (inactive), the GI50 (SNB-78) was 36.3 µM (inactive) and the GI50 (HOP-18) was > 100 µM (inactive). For the same compound, the GI50 (OVCAR-8) was > 100 µM (inactive), the GI50 (NCI-H460) was > 100 µM (inactive) and the GI50 (SK-OV-3) was > 100 µM (inactive). For the same compound, the GI50 (U-251) was > 100 µM (inactive), the GI50 (HT-29) was > 100 µM (inactive) and the GI50 (RXF 393) was 29.6 µM (inactive). For the same compound, the GI50 (Malme-3M) was > 100 µM (inactive), the GI50 (TK-10) was > 100 µM (inactive) and the GI50 (SK-MEL-5) was > 100 µM (inactive).
